Measurements as given in patent US5506354A, “Imidazolylpiperazinyl steroids” (The Upjohn Company, priority 1992, dated 1996).
Structures can show the parent of a compound that is named as a salt.

What follows are molecules tested on angiogenesis (assay: Chick embryo assay of Folkman (inhibition of angiogenesis / tumor growth)). Details: 50 μg/10 μl in the presence of heparin.
Format: in vivo
Method: According to this procedure compounds which are considered to be "active" (i.e. antiangiogenic) give an avascular zone of 4 mm or greater in some embryos when tested at 50 μg/10 μl in the presence of 50 μg/10μ of heparin.
In the case of C[C@]12CCC(=O)C=C1CC[C@@H]1C2=CC[C@@]2(C)[C@H]1CC[C@]2(O)C(=O)CN1CCN(C(=O)c2ccco2)CC1 [Example 6B, 17α-Hydroxy-21-[4-(2-furonylcarbonyl)-1-piperazinyl]pregna-4,9(11)-diene-3,20-dione], the “inhibition of angiogenesis (activity in words)” value (from here on “inhibition of angiogenesis”) is reported as “demonstrate inhibition of angiogenesis”. CCN(CC)c1cc(N2CCN(CC(=O)[C@@]3(O)CC[C@H]4[C@@H]5CCC6=CC(=O)CC[C@]6(C)C5=CC[C@@]43C)CC2)nc(N(CC)CC)n1 [Example 16, 17α-Hydroxy-21-[4-[2,6-bis(diethylamino)pyrimidinyl]-1-piperazinyl]pregna-4,9(11)-diene-3,20-dione dihydrochloride hydrate] was tested, and the “% of Embryos with 4 mm or Greater Avascular Zone” value (shortened to “% of Embryos”) was 91%. For C[C@]12CCC(=O)C=C1CC[C@@H]1[C@@H]2C(=O)C[C@@]2(C)[C@H]1CC[C@]2(O)C(=O)CN1CCN(c2ccccn2)CC1 [Example 20], the “% of Embryos” value was 72% and the “inhibition of angiogenesis” value was “demonstrate inhibition of angiogenesis”. In the case of CC(C)(C)CC(=O)O[C@@H]1C[C@@]2(C)[C@@H](CC[C@]2(O)C(=O)CN2CCN(c3ccccn3)CC2)[C@@H]2CCC3=CC(=O)CC[C@]3(C)[C@H]21 [Example 28, 11α,17α-Dihydroxy-21-[4-(2-pyridinyl)-1-piperazinyl]pregn-4-ene-3,20-dione 11-(3,3-dimethyl-1-butyratedihydrochloride], the “% of Embryos” value is reported as 73%. COc1ccc(N2CCN(CC(=O)[C@@]3(O)CC[C@H]4[C@@H]5CCC6=CC(=O)CC[C@]6(C)[C@H]5[C@H](OC(=O)CC(C)(C)C)C[C@@]43C)CC2)cc1 [Example 32, 11α,17α-dihydroxy-21-[4-(4-methoxyphenyl)-1-piperazinyl]pregn-4-ene-3,20-dione 11-(3,3-dimethyl-1-butyrate) dihydrochloride] was tested, and the “inhibition of angiogenesis” value was “demonstrate inhibition of angiogenesis”. COc1ccc(N2CCN(CC(=O)[C@@]3(O)CC[C@H]4[C@@H]5C[C@H](C)C6=CC(=O)C=C[C@]6(C)[C@H]5[C@@H](O)C[C@@]43C)CC2)cc1 [Example 33, 11β,17α-dihydroxy-21-[4-(4-methoxyphenyl)-1-piperazinyl]-6α-methylpregna-1,4-diene-3,20-dione dihydrochloride] was tested, and the “inhibition of angiogenesis” value was “demonstrate inhibition of angiogenesis”. For COc1ccc(CCNCC(=O)[C@@]2(O)CC[C@H]3[C@@H]4C[C@H](C)C5=CC(=O)C=C[C@]5(C)[C@H]4[C@@H](O)C[C@@]32C)cc1OC [Example 34, 11β,17α-dihydroxy-21-[[2-(3,4-dimethoxy-phenyl)ethyl]amino]-6α-methylpregna-1,4-diene-3,20-dione hydrochloride], the “inhibition of angiogenesis” value was “demonstrate inhibition of angiogenesis”. For C[C@]12C[C@@H](O)[C@H]3[C@@H](CCC4=CC(=O)CC[C@@]43C)[C@@H]1CC[C@@H]2C(=O)CN1CCN(c2ccccn2)CC1.Cl.Cl [Example 36, 11α-hydroxy-21-[4-(2-pyridinyl)-1-piperazinyl]-pregn-4-ene-3,20-dione dihydrochloride], the “inhibition of angiogenesis” value was “demonstrate inhibition of angiogenesis”. C[C@H]1C[C@H]2[C@@H]3CC[C@H]4CC(=O)CC[C@]4(C)C3=CC[C@]2(C)[C@@]1(O)C(=O)CN1CCN(c2ccccn2)CC1.Cl.Cl.O [Example 44, 17α-hydroxy-16β-methyl-21-[4-(2-pyridinyl)-1-piperazinyl]-5α-pregn-9(11)-ene-3,20-dione dihydrochloride hydrate] was tested, and the “% of Embryos” value was 75%. For CCN(CC)c1cc(N2CCN(CC(=O)[C@@]3(O)CC[C@H]4[C@@H]5C[C@H](C)C6=CC(=O)C=C[C@]6(C)C5=CC[C@@]43C)CC2)nc(N(CC)CC)n1 [Example 63, 21-[4-[2,6-bis(diethylamino)-4-pyrimidinyl]-1-piperaz-inyl]-17α-hydroxy-6α-methylpregna-1,4,9(11)-triene-3,20-dione (E)-2-butenedioate (1:1) salt], the “inhibition of angiogenesis” value was “demonstrate inhibition of angiogenesis”.
